In brackets after ≈: the same amount, converted by molar mass. Read-outs that look alike come from different tables or passages of the source. Residues, ends and D or L forms follow the SMILES beside them.
Columns and labels:
E. coli [1] = assay: Outer membrane permeabilization (NPN uptake) assay; format: cell-based
Procedure: (§1) Membrane-permeabilizing activity of the peptide was determined using the fluorescent dye N-phenyl-1-napthylamine (NPN) assay, as described earlier (Loh et al. (1984) Antimicrob. Agents Chemother. 26, 546-551), with intact cells of E. coli and P. aeruginosa. The increase in fluorescence due to partitioning of NPN uptake into outer membrane (OM) was measured by addition of increasing concentrations of peptide. Polymyxin B (PMB) was taken as a positive control due to its outer membrane permeabilizing properties. All experiments were performed three times. S. aureus was used as a negative control.
(§2) Outer membrane permeabilizing activity of EC5 against E. coli and P. aeruginosa was determined using the fluorescent dye N-phenyl-1-napthylamine (NPN) assay. The outer membrane of a bacterial cell is impermeable to NPN under normal conditions. However permeabilization of outer membrane by anti-microbial peptides allows the uptake of NPN thereby leading to increase in fluorescence in the cell. […] The outer membrane permeabilizing activity of EC5 was compared to polymyxin B, a well studied membrane permeabilising agent (Daugelavicius, R., et al., (2000) Antimicrob. Agents Chemother. 44, 2969-2978).

P. aeruginosa [2] = assay: Outer membrane permeabilization (NPN uptake) assay; format: cell-based
Procedure: as §1, §2

P. aeruginosa cells = assay: Qdot-based fluorometry binding assay; conditions: EC5 50 μg/ml
Procedure: (§3) The assay was carried out as described earlier (21,24). Bacterial cell suspensions at a concentration of 10^3 CFU were incubated with EC5 (50 μg/ml) in an eppendorf tube at room temperature for 60 min. Following three washes with 1×PBS pH 7.4 the pellet was resuspended in […] of 1:10,000 dilution of streptavidin-conjugated Q dots (QD 605) solution (Invitrogen, Gaithersburg, Md.). The fluorometric counts were measured using SYNERGY 4™ BioTek micro plate reader (BioTek Instruments, Winooski, Vt.).
(§4) Binding of the peptide to the bacteria was detected using Qdot-nanocrystal cores conjugated to streptavidin. Analysis of the bacterial suspension binding to the peptide was performed in a micro-well plate using a fluorescence plate reader (SYNERGY 4™, Biotek, USA). Excitation was set to a spectral range of 360-485 nm and emission was at 605 nm. […] The analysis also confirmed that EC5 binds to P. aeruginosa cells.

E. coli [3] = assay: Qdot-based fluorometry binding assay; conditions: EC5 50 μg/ml; p<0.0001
Procedure: as §3, §4

K pneumoniae [4] = format: cell-based
Procedure: (§5) In vitro anti-bacterial activity of EC5. The test microorganisms mentioned earlier in the experimental procedures were used to evaluate the bactericidal activity of EC5 peptide. The minimum inhibitory concentrations (MICs) of the peptide were determined by standard dilution assay as recommended by Clinical and Laboratory Standard Institutes (CLSI) guidelines (Azad, M. A., et al., (2011) Antimicrob. Agents Chemother. 55, 2137-2145). Bacteria were grown to mid-logarithmic phase in cation-supplemented Mueller-Hinton broth (MHB) (Becton Dickinson, Sparks, Md.) on an orbital shaker (37° C.) and diluted to a 0.5 McFarland standard to a final volume of 1 ml. Decreasing concentrations of the peptide were incubated with the microorganisms. Results were recorded by visual inspection after 24 h of incubation at 37° C. Assay was repeated three separate times to ensure reproducibility. […] EC5 concentrations 0x, 0.5x, 1x, and 2×MIC were incubated with logarithmic phase of bacteria of approximately 10^5 CFU/ml in an orbital shaker for 48 h at 37° C. Samples were drawn and plated on NA plates. Polymyxin B was used as a positive control and peptide with no anti-bacterial activity from our previous studies was used as a negative control.

E. coli [5] = format: cell-based
Procedure: as §5

P. aeruginosa [6] = format: cell-based
Procedure: as §5

S. epidermidis = assay: Anti-bacterial activity in spiked plasma; format: cell-based; conditions: even at 50 μg/ml
Procedure: (§6) The anti-bacterial activity of the peptide in the presence of homologous plasma and platelets were assessed. Platelet Concentrates (PCs) in bags were obtained and stored at room temperature as described earlier (Mohan, K. V. et al., (2010) Transfusion 50, 166-173). Plasma was isolated from the PC bag by collecting 25 ml of PCs and subjecting the sample to a low speed centrifugation step to separate PLT-rich plasma from plasma. For assays log phase cultures of bacteria grown in Luria-Bertani (LB) broth were centrifuged at 3000×g and suspended in 1×PBS pH7.4. Bacterial titers were estimated by measuring the optical density (OD) and microscopy. Approximately 10^5 CFU/ml of each bacterial strain was spiked into 0.1 ml of plasma or platelets and incubated with peptide at concentrations ranging from 50 to 0 μg/ml. Incubation was carried out at room temperature for 2 h on a shaker. At the end of 2-h exposure period, a fixed volume of the suspension was plated on NA plates, and incubating at 37° C. for 18 to 24 h. Bactericidal activity was measured by log-reduction by viable bacteria.

S. aureus = assay: Anti-bacterial activity in spiked plasma; format: cell-based; conditions: even at 50 μg/ml
Procedure: as §6

B. cereus = assay: Anti-bacterial activity in spiked plasma; format: cell-based; conditions: even at 50 μg/ml
Procedure: as §6

K pneumoniae [7] = assay: Anti-bacterial activity in spiked plasma; format: cell-based; conditions: 2 h
Procedure: as §6

E. coli [8] = assay: Anti-bacterial activity in spiked plasma; format: cell-based; conditions: 2 h
Procedure: as §6

P. aeruginosa [9] = assay: Anti-bacterial activity in spiked plasma; format: cell-based; conditions: 2 h
Procedure: as §6

[10] = increasing peptide concentrations

CC[C@H](C)[C@H](NC(=O)[C@H](CCCCN)NC(=O)[C@H](CCCNC(=N)N)NC(=O)[C@H](Cc1ccccc1)NC(=O)[C@H](CC(C)C)NC(=O)[C@H](CC(C)C)NC(=O)[C@@H](N)CCCNC(=N)N)C(=O)N[C@@H](CCCNC(=N)N)C(=O)N[C@@H](CCCNC(=N)N)C(=O)N[C@@H](CC(C)C)C(=O)N[C@@H](CCCCN)C(=O)N[C@@H](CCCNC(=N)N)C(=O)O [EC5, RLLFRKIRRLKR] (H-RLLFRKIRRLKR-OH; N-terminus and C-terminus assumed)
increase in NPN fluorescence compared with polymyxin B (E. coli [1]; at similar concentrations): higher than for polymyxin B | NPN fluorescence (outer membrane permeabilization) (E. coli [1]; [10]): dose-dependent increase in fluorescence | increase in NPN fluorescence compared with polymyxin B (P. aeruginosa [2]; at similar concentrations): higher than for polymyxin B | NPN fluorescence (outer membrane permeabilization) (P. aeruginosa [2]; [10]): dose-dependent increase in fluorescence | binding to P. aeruginosa cells (fluorometric counts) (P. aeruginosa cells): binds | binding to E. coli (fluorometric counts) (E. coli [3]): able to bind | MIC (K pneumoniae [4]): 64 to 128 µg/mL | MIC (E. coli [5]): 8 µg/mL (≈ 4.83 µM) | Minimum Bactericidal Concentration (MBC) (E. coli [5]): 8 µg/mL | MIC (P. aeruginosa [6]): 16 to 32 µg/mL | Minimum Bactericidal Concentration (MBC) (P. aeruginosa [6]): 8 µg/mL | MIC (P. aeruginosa [6]; P. aeruginosa ATCC 27853): 8 µg/mL (≈ 4.83 µM) | MIC (P. aeruginosa [6]; P. aeruginosa, strain not named): 8 µg/mL (≈ 4.83 µM) | reduction of S. epidermidis in plasma (S. epidermidis): failed to cause a significant reduction | reduction of S. aureus in plasma (S. aureus): failed to cause a significant reduction | reduction of B. cereus in plasma (B. cereus): failed to cause a significant reduction | reduction of K pneumoniae in plasma (K pneumoniae [7]; EC5 25 μg/ml): around 1.5 log10 | reduction of K pneumoniae in plasma (K pneumoniae [7]; EC5 50 μg/ml): around 2.5 log10 | reduction of E. coli in plasma (E. coli [8]; EC5 12.5 μg/ml): 3.5 log10 | reduction of E. coli in plasma (E. coli [8]; EC5 25 μg/ml): 4.5 log10 | bactericidal activity in homologous plasma, in words (E. coli [8]; EC5 50 μg/ml): inhibited | reduction of E. coli in plasma (E. coli [8]; EC5 50 μg/ml): around 5 log10 CFU/ml | reduction of P. aeruginosa in plasma (P. aeruginosa [9]; EC5 12.5 μg/ml): ~3 log10 CFU/ml | reduction of P. aeruginosa in plasma (P. aeruginosa [9]; EC5 25 μg/ml): around 4 log10 CFU/ml | bactericidal activity in homologous plasma, in words (P. aeruginosa [9]; EC5 50 μg/ml): inhibited | reduction of P. aeruginosa in plasma (P. aeruginosa [9]; EC5 50 μg/ml): around 5 log10 CFU/ml

From US9243036B2, “Anti-microbial activity of synthetic peptides” (THE UNITED STATES OF AMERICA, as represented by the …, priority 2012, dated 2016)
